Results reported in patent publication US20250171438A1 (Agios Pharmaceuticals, Inc., priority 2022, published 2025).

These molecules were tested against T1, human PAH with the R408W mutation (Homo sapiens, UniProt P00439, R408W) (assay: Cell Based Phenylalanine Flux Assay). Settings: A375 cells expressing human R408W PAH; 24 hrs compound incubation; 13C-Tyrosine by LC-MS; average where tested multiple times; read-out: AC50.
T1 construct: expressed in transfected cells
T1 sequence (P00439 1-452 R408W): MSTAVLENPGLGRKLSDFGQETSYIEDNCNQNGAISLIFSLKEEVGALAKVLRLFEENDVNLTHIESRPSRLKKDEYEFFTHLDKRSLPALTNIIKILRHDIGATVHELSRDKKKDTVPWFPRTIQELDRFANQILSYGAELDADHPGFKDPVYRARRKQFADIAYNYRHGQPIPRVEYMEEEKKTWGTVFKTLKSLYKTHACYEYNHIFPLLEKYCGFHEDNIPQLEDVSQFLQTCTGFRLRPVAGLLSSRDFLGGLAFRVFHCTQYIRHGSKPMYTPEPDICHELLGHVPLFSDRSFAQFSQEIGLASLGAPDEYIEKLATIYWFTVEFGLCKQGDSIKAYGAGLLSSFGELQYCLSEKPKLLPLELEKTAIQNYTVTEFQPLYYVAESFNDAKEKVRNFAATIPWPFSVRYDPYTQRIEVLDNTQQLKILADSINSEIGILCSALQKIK
Parameters: scale not given here
With `Cc1nnc(C(=O)N2CCc3[nH]cnc3[C@H]2c2nc3c(F)cccc3s2)o1` [Example 1465, (S)-(4-(4-fluorobenzo[d]thiazol-2-yl)-6,7-dihydro-1H-imidazo[4,5-c]pyridin-5(4H)-yl)(5-methyl-1,3,4-oxadiazol-2-yl)methanone] the AC50 was 500 to 1000 nM.
For `O=C(c1ccnn1-c1ccccn1)N1CCc2[nH]cnc2[C@H]1c1nc2c(F)cccc2s1` [Example 1757, (S)-(4-(4-fluorobenzo[d]thiazol-2-yl)-6,7-dihydro-1H-imidazo[4,5-c]pyridin-5(4H)-yl)(1-(pyridin-2-yl)-1H-pyrazol-5-yl)methanone], the AC50 was 500 to 1000 nM.
For `C[C@@H]1CN(C(=O)c2nnc(-c3ccccn3)o2)[C@H](c2nc3ccccc3s2)c2nc[nH]c21` [Example 1588, ((4S,7R)-4-(benzo[d]thiazol-2-yl)-7-methyl-6,7-dihydro-1H-imidazo[4,5-c]pyridin-5(4H)-yl)(5-(pyridin-2-yl)-1,3,4-oxadiazol-2-yl)methanone], the AC50 was 500 to 1000 nM.
`CN(C)c1nnc(C(=O)N2CCc3[nH]cnc3[C@@H]2c2nc3ccccc3s2)o1` [Example 1610, (R)-(4-(benzo[d]thiazol-2-yl)-6,7-dihydro-1H-imidazo[4,5-c]pyridin-5(4H)-yl)(5-(dimethylamino)-1,3,4-oxadiazol-2-yl)methanone] showed an AC50 of 1000 to 5000 nM.
`O=C(c1oc(C2(O)CCC2)nc1C(F)(F)F)N1CCCc2[nH]cnc2[C@@H]1c1nc2ccccc2s1` [Example 2138, (R)-(4-(benzo[d]thiazol-2-yl)-7,8-dihydroimidazo[4,5-c]azepin-5(1H,4H,6H)-yl)(2-(1-hydroxycyclobutyl)-4-(trifluoromethyl)oxazol-5-yl)methanone] showed an AC50 of 1000 to 5000 nM.
`COc1ccn2ncc(C(=O)N3CCc4[nH]cnc4[C@@H]3c3nc4c(F)cccc4s3)c2c1` [Example 1198, (R)-(4-(4-fluorobenzo[d]thiazol-2-yl)-6,7-dihydro-1H-imidazo[4,5-c]pyridin-5(4H)-yl)(5-methoxypyrazolo[1,5-a]pyridin-3-yl)methanone] showed an AC50 of 1000 to 5000 nM.
For `N#Cc1nc(N2CCOCC2)oc1C(=O)N1CCc2[nH]cnc2[C@H]1c1nc2ccccc2s1` [Example 1705, (S)-5-(4-(benzo[d]thiazol-2-yl)-4,5,6,7-tetrahydro-1H-imidazo[4,5-c]pyridine-5-carbonyl)-2-morpholinooxazole-4-carbonitrile], the AC50 was 500 to 1000 nM.
With `Cc1ccc2c(C(=O)N3CCc4[nH]cnc4[C@H]3c3nc4c(F)cccc4s3)cnn2c1` [Example 1173, (S)-(4-(4-fluorobenzo[d]thiazol-2-yl)-6,7-dihydro-1H-imidazo[4,5-c]pyridin-5(4H)-yl)(6-methylpyrazolo[1,5-a]pyridin-3-yl)methanone] the AC50 was 500 to 1000 nM.
`O=C(CCc1nnc(Br)s1)N1CCc2[nH]cnc2[C@H]1c1nc2ccccc2s1` [Example 1089] showed an AC50 of 500 to 1000 nM.
`O=C(c1nnc(-c2cnn(CC(F)(F)F)c2)o1)N1CCc2[nH]cnc2[C@H]1c1nc2ccccc2s1` [Example 1793, [(4S)-4-(1,3-benzothiazol-2-yl)-1,4,6,7-tetrahydroimidazo[4,5-c]pyridin-5-yl]-[5-[1-(2,2,2-trifluoroethyl)pyrazol-4-yl]-1,3,4-oxadiazol-2-yl]methanone] was tested, and the AC50 was under 500 nM.
Work on `O=C(c1cnco1)N1CCc2[nH]cnc2[C@@H]1c1nc2cccc(F)c2s1` [Example 1248, (R)-(4-(7-fluorobenzo[d]thiazol-2-yl)-6,7-dihydro-1H-imidazo[4,5-c]pyridin-5(4H)-yl)(oxazol-5-yl)methanone] yielded an AC50 of 1000 to 5000 nM.
`O=C(c1cnn2ccc(Cl)cc12)N1CCc2[nH]cnc2[C@H]1c1nc2ccc(F)cc2s1` [Example 1151] was tested, and the AC50 was under 500 nM.
In the case of `C[C@H](O)c1nc(C(F)F)c(C(=O)N2CCc3[nH]cnc3[C@H]2c2nc3ccccc3s2)o1` [Example 2095], the AC50 is reported as under 500 nM.
`O=C(c1oc(-c2ccccn2)nc1C(F)(F)F)N1CCCc2[nH]cnc2[C@@H]1c1nc2ccccc2s1` [Example 2122, (R)-(4-(benzo[d]thiazol-2-yl)-7,8-dihydroimidazo[4,5-c]azepin-5(1H,4H,6H)-yl)(2-(pyridin-2-yl)-4-(trifluoromethyl)oxazol-5-yl)methanone] showed an AC50 of 1000 to 5000 nM.
In the case of `O=C(c1cc(C(F)(F)F)n[nH]1)N1CCc2[nH]cnc2[C@H]1c1nc2c(F)cccc2s1` [Example 1816, (S)-(4-(4-fluorobenzo[d]thiazol-2-yl)-6,7-dihydro-1H-imidazo[4,5-c]pyridin-5(4H)-yl)(3-(trifluoromethyl)-1H-pyrazol-5-yl)methanone], the AC50 is reported as 1000 to 5000 nM.
`O=C(c1nnc(C2CC2)o1)N1CCc2[nH]cnc2[C@@H]1c1nc2ccccc2s1` [Example 1364, (R)-(4-(benzo[d]thiazol-2-yl)-6,7-dihydro-1H-imidazo[4,5-c]pyridin-5(4H)-yl)(5-cyclopropyl-1,3,4-oxadiazol-2-yl)methanone] showed an AC50 of 1000 to 5000 nM.
`COCc1ncc(C(=O)N2CCc3[nH]cnc3[C@H]2c2nc3ccccc3s2)s1` [Example 1185] showed an AC50 of 500 to 1000 nM.
`Cc1c(-c2ncc(C(=O)N3CCc4[nH]cnc4[C@H]3c3nc4ccccc4s3)s2)cnn1C` [Example 1359] was tested, and the AC50 was under 500 nM.
Work on `O=C(c1cnc(C2CC2)s1)N1CCc2[nH]cnc2[C@@H]1c1nc2ccccc2s1` [Example 1180, (R)-(4-(benzo[d]thiazol-2-yl)-6,7-dihydro-1H-imidazo[4,5-c]pyridin-5(4H)-yl)(2-cyclopropylthiazol-5-yl)methanone] yielded an AC50 of 1000 to 5000 nM.
`N#Cc1ncoc1C(=O)N1CC2(CC2)c2[nH]cnc2[C@@H]1c1nc2ccccc2s1` [Example 1663, (R)-5-(4′-(benzo[d]thiazol-2-yl)-1′,4′,5′,6′-tetrahydrospiro[cyclopropane-1,7′-imidazo[4,5-c]pyridin]-5′-ylcarbonyl)oxazole-4-carbonitrile] gave an AC50 of over 5000 nM.
`C[C@@H](O)c1nc(C(F)F)c(C(=O)N2CCc3[nH]cnc3[C@H]2c2nc3ccccc3s2)o1` [Example 2091] was tested, and the AC50 was under 500 nM.
`Cc1nc(-c2ccccn2)oc1C(=O)N1CCc2[nH]cnc2[C@H]1c1nc2c(F)cccc2s1` [Example 1445, (S)-(4-(4-fluorobenzo[d]thiazol-2-yl)-6,7-dihydro-1H-imidazo[4,5-c]pyridin-5(4H)-yl)(4-methyl-2-(pyridin-2-yl)oxazol-5-yl)methanone] gave an AC50 of under 500 nM.
For `Brc1ccc2nc([C@@H]3c4nc[nH]c4CCN3Cc3nccs3)[nH]c2c1` [Example 971, (S)-2-((4-(6-bromo-1H-benzo[d]imidazol-2-yl)-6,7-dihydro-1H-imidazo[4,5-c]pyridin-5(4H)-yl)methyl)thiazole], the AC50 was under 500 nM.
Molecule `C[C@@H]1CN(C(=O)c2ocnc2C2CC2)[C@H](c2nc3c(F)cccc3s2)c2nc[nH]c21` [Example 1551, (4-cyclopropyloxazol-5-yl)((4S,7R)-4-(4-fluorobenzo[d]thiazol-2-yl)-7-methyl-6,7-dihydro-1H-imidazo[4,5-c]pyridin-5(4H)-yl)methanone] has an AC50 of 500 to 1000 nM.

Same assay, conditions: A375 cells expressing human R408W PAH; 24 hrs with compound; 13C-Tyrosine by LC-MS; average where tested multiple times
With `Fc1ccc2nc(N3CCc4[nH]cnc4C3c3nc4ccccc4s3)oc2c1` (centres unmarked) the AC50 was “E, E”.

Same assay, conditions: A375 cells expressing human R408W PAH; 24 hrs with compound; 13C-Tyrosine by LC-MS; average where tested multiple times; read-out: AC50
In the case of `O=C(c1nc2ccccc2s1)N1CCc2[nH]cnc2C1c1nc2c(F)cccc2s1` (centres unmarked), the AC50 is reported as 1000 to 5000 nM.
`O=C(c1oc(-c2ccccn2)nc1-c1ccccc1)N1CCc2[nH]cnc2C1c1nc2ccccc2s1` (centres unmarked) was tested, and the AC50 was 1000 to 5000 nM.
Molecule `O=C(c1cnn2cc(Br)ccc12)N1CCc2[nH]cnc2[C@H]1c1nc2ccccc2[nH]1` [(S)-(4-(1H-benzo[d]imidazol-2-yl)-1,4,6,7-tetrahydro-5H-imidazo[4,5-c]pyridin-5-yl)(6-bromopyrazolo[1,5-a]pyridin-3-yl)methanone] has an AC50 of 1000 to 5000 nM.
`COCc1ncc(C(=O)N2CCc3[nH]cnc3C2c2nc3ccccc3s2)o1` (centres unmarked) gave an AC50 of over 5000 nM.
For `CN(C)Cc1nc(C#N)c(C(=O)N2CCc3[nH]cnc3C2c2nc3ccccc3s2)o1` (centres unmarked), the AC50 was 1000 to 5000 nM.
`Cn1nc(C#N)cc1C(=O)N1CCc2[nH]cnc2C1c1nc2c(F)cccc2s1` (centres unmarked) gave an AC50 of over 5000 nM.
For `Clc1csc(CN2CCc3[nH]cnc3C2c2nc3ccccc3[nH]2)n1` (centres unmarked), the AC50 was over 5000 nM.
Molecule `O=C(c1cnn2ccc(Br)cc12)N1CCc2[nH]cnc2C1c1nc2ccc(Cl)cc2[nH]1` (centres unmarked) has an AC50 of 1000 to 5000 nM.
`O=C(CCc1nccs1)N1CCc2[nH]cnc2C1c1nc2cc(F)ccc2s1` (centres unmarked) gave an AC50 of 1000 to 5000 nM.
Molecule `O=C(Cc1nccs1)N1CCc2[nH]cnc2C1c1nc2c(F)cccc2s1` (centres unmarked) has an AC50 of over 5000 nM.
In the case of `O=C(c1cc2cccnn2c1)N1CCc2[nH]cnc2[C@H]1c1nc2ccccc2[nH]1` [(S)-(4-(1H-benzo[d]imidazol-2-yl)-1,4,6,7-tetrahydro-5H-imidazo[4,5-c]pyridin-5-yl)(pyrrolo[1,2-b]pyridazin-6-yl)methanone], the AC50 is reported as over 5000 nM.
Molecule `O=C(Cc1nc(C(F)(F)F)cs1)N1CCc2[nH]cnc2C1c1nc2c(F)cccc2s1` (centres unmarked) has an AC50 of 1000 to 5000 nM.
Work on `O=C(c1ncc(Cl)s1)N1CCc2[nH]cnc2C1c1nc2cccc(F)c2s1` (centres unmarked) yielded an AC50 of 1000 to 5000 nM.
`CN(C)CCc1nnc(C(=O)N2CCc3[nH]cnc3C2c2nc3ccccc3s2)o1` (centres unmarked) was tested, and the AC50 was 1000 to 5000 nM.
In the case of `COc1ccc2c(C(=O)N3CCc4[nH]cnc4[C@H]3c3nc4ccccc4[nH]3)cnn2c1` [(S)-(4-(1H-benzo[d]imidazol-2-yl)-6,7-dihydro-1H-imidazo[4,5-c]pyridin-5(4H)-yl)(6-methoxypyrazolo[1,5-a]pyridin-3-yl)methanone], the AC50 is reported as 1000 to 5000 nM.
`O=C(Cc1nc2ccccc2s1)N1CCc2[nH]cnc2C1c1nc2ccccc2s1` (centres unmarked) gave an AC50 of 1000 to 5000 nM.
